From US8084621B2, “3-Pyrrolo[b]cyclohexylene-2-dihydroindolinone derivatives and uses thereof” (Jiangsu Simcere Pharmaceutical R&D Co. Ltd., priority 2006, dated 2011)

Tests used:
[1] = test system: Human Small Cell Lung Cancer Cell Line (NCI-H446); experiment: Tumor cell proliferation assay (MTT), NCI-H446; assay type: cell-based; details: for inhibition at 10 µM: concentration of 10^−5 mol/L, preliminary screening, 72 hours, read-out: Inhibition rate % NCI-H446; for IC50: secondary screening, 48 hours
Text: (§1) The assay used generally is the blue tetrazolium bromide (MTT) method. […] The amount of formazan can be detected by the microplate reader through the absorption value at 570 nm. The amount of formazan product generated is proportional to the number of living cells in the sample, so the OD value may reflect the number of living cells and the ability of a test drug to inhibit or kill cells. The MTT assay may be used in determining the ability of different compounds of the present invention to inhibit one or more cancer cells proliferation. Similar assays can be designed along the same lines for any cancer cell using techniques well known in the art.
(§2) The assay used generally is the blue tetrazolium bromide (MTT) method. […] Intracellular purple formazan salt crystals can be solved in DMSO and the absorption value at 570 nm is detected by the microplate reader, then the number of living cells can be detected indirectly. So MTT assay may be used to determine the ability of a compound of the present invention to inhibit cell proliferation. Similar assays can be designed along the same lines for any cancer cell using techniques well known in the art.
2.2.5 Human Small Cell Lung Cancer Cell Line (NCI-H446)
(§3) The cells of the 2.2.1, 2.2.2, 2.2.3, 2.2.4, 2.2.5 cultured with RPMI 1640 containing 12% calf serum in the condition of 37° C., 5% CO2.
(§4) 2.3.1 Cell seeding: Trypsinize the cell by 0.05% trypsin-EDTA and add RPMI 1640 medium (DMEM or 5A) containing 12% calf serum. Count the number, then dilute to 1.67×10^4/ml. Add 180 ul/well to the 96 well plate (3000 cells/well).
(§5) 2.3.2 Culture: cells are incubated for 24 hours at 37° C. under 5% CO2.
(§6) 2.3.3 Preliminary screening: The compounds are firstly diluted to 0.1 mol/L with DMSO, and then diluted to three concentrations of 10^−5 mol/L, 10^−6 mol/L and 10^−7 mol/L. Add 20 ul test compounds to the 96 well plate and incubate for 72 hours. Each group has three parallel wells and all experiments repeat three times. Each inhibition ratio is calculated, then an average value of three times is taken as the measured value. 2.3.4 Staining 2.3.4.1 Attached cell: add 20 ul/well MTT to the 96-well plates; incubate for 4 hours in the incubator. Pour out the culture medium in the well and add 100 ul/well DMSO. Shake the plate for 5 min. 2.3.4.2 Suspension cell: add 20 ul/well MTT to the 96-well plates; incubate for 4 hours in the incubator. Add 50 ul/well 20% SDS and incubate for overnight in the incubator. 2.3.5 Reading the plates: read the absorbance A570-A630 with the Infinite M200 microtiter plate reader. Calculate the inhibition ratio of the test compounds. 2.3.6 Secondary screening: the compounds whose inhibition ratio is greater than 50% at the concentrations of 10^−5 mol/L in the preliminary screening will be picked out for Secondary screening. Dilute these compounds to ten concentrations: 10^−5 mol/L, 0.5×10^−5 mol/L, 10^−6 mol/L, 0.8×10^−6 mol/L, 0.6×10^−6 mol/L, 0.4×10^−6 mol/L, 0.2×10^−6 mol/L, 10^−7 mol/L, 0.8×10^−7 mol/L and 0.4×10^−7 mol/L. Add 20 ul test compound solution to the 96 well plate and incubate for 48 hours. Each group has three parallel wells and all experiments repeat for three times. Read the plates and calculate the inhibition ratio according to the preliminary screening method. 2.3.7 Calculate the Inhibition Ratio of Cell Proliferation and the IC50
(§7) According to the inhibition ratio of cell proliferation at the different concentrations of the compound, inhibition ratio of 50% of the test compound is calculated through the logarithm of the concentration of the compound with the Logit [I] linear regression, and an average value of three times is taken as the measured value of a sample.

[2] = test system: Human Colon Cancer Cell Line (HT-29); experiment: Tumor cell proliferation assay (MTT), HT29; assay type: cell-based; details: for inhibition at 10 µM: concentration of 10^−5 mol/L, preliminary screening, 72 hours, read-out: Inhibition rate % HT29; for IC50: secondary screening, 48 hours
Text: as §1, §2
2.2.11 Human Colon Cancer Cell Line (HT-29);
(§8) The cells of 2.2.11, 2.2.12, 2.2.13 were cultured in MC COYS 5-A medium containing 12% fetal bovine serum in the condition of 37° C., 5% CO2.
as §4, §5
as §6, with “2.3.6 Secondary screening: the compounds whose inhibition ratio is greater than 50% at the concentrations of 10^−5 mol/L in the preliminary screening will be picked out for Secondary screening.” left out
as §7

[3] = test system: Human Ovarian Cancer Cell Line (SK-OV-3); experiment: Tumor cell proliferation assay (MTT), SK-OV-3; assay type: cell-based; details: for inhibition at 10 µM: concentration of 10^−5 mol/L, preliminary screening, 72 hours, read-out: Inhibition rate % SK-OV-3; for IC50: secondary screening, 48 hours
Text: as §1, §2
2.2.13 Human Ovarian Cancer Cell Line (SK-OV-3).
as §8, §4, §5, §6, §7

[4] = test system: Human Gastric Cancer Cell Line (BGC); experiment: Tumor cell proliferation assay (MTT), BGC; assay type: cell-based; details: for inhibition at 10 µM: concentration of 10^−5 mol/L, preliminary screening, 72 hours, read-out: Inhibition rate % BGC; for IC50: secondary screening, 48 hours
Text: as §1, §2
2.2.1 Human Gastric Cancer Cell Line (BGC)
as §3, §4, §5, §6, §7

[5] = test system: Human Pancreatic Carcinoma Cell Line (BXPC-3); experiment: Tumor cell proliferation assay (MTT), BXPC-3; assay type: cell-based; details: for inhibition at 10 µM: concentration of 10^−5 mol/L, preliminary screening, 72 hours, read-out: Inhibition rate % BXPC-3; for IC50: secondary screening, 48 hours
Text: as §1, §2
2.2.6 Human Pancreatic Carcinoma Cell Line (BXPC-3);
The cells of 2.2.6, 2.2.7 cultured in RPMI 1640 medium containing 12% fetal bovine serum in the condition of 37° C., 5% CO2.
as §4, §5
as §6, with “2.3.6 Secondary screening: the compounds whose inhibition ratio is greater than 50% at the concentrations of 10^−5 mol/L in the preliminary screening will be picked out for Secondary screening.” left out
as §7

VEGFR-2 = target: T1, VEGFR-2 (Homo sapiens, UniProt P35968); experiment: Protein kinase activity by ELISA in vitro, VEGFR-2; assay type: biochemical; details: read-out: IC50 of the VEGF Receptor Kinase
T1 construct: purchased Cell Signaling Technology CO
Protocol: An ELISA (Enzyme-Linked Immunosorbent Sandwich Assay) procedure may be used to detect and measure the level of protein tyrosine kinase activity. […] According to the principle of ELISA, a monoclonal antibody can react with phosphorylated substrate specially, so biotin-labeled substrate is binded to streptavidin-coated ELISA plate, and then binded to a HRP-labeled goat anti-mouse antibody. Finally TMB is added for a color reaction and the value of A450-A630 is read by ELISA plate reader. The OD value can reflect the inhibitory activity of the VEGFR-2, PDGFR-β, c-Kit tyrosine kinases etc. treated with the test compounds at the different concentrations. So, the assay may be used to measure the inhibition ratio of the compounds for the tyrosine kinase activity. Similar assays can be designed along the same lines for any PK using techniques well known in the art.
According to the principle of ELISA, a monoclonal antibody can react with phosphorylated substrate specially, so biotin-labeled substrate is binded to streptavidin-coated ELISA plate, and then binded to a HRP-labeled goat anti-mouse antibody. Finally TMB is added for a color reaction and the value of A450-A630 is read by ELISA plate reader. The OD value can reflect the inhibitory activity of the VEGFR-2, PDGFR-β c-Kit tyrosine kinases treated with the test compounds at the different concentrations. So, the assay may be used to measure the inhibition ratio of the compounds for the tyrosine kinase activity. Similar assays can be designed along the same lines for any PK using techniques well known in the art.
VEGF Receptor 2, PDGF Receptor-beta and c-kit kinase assay kit (include kinase, 1.25M DTT, substrate peptide, 10 mM ATP, P-Tyr-100 Mouse antibody, 4×HTScan tyrosine kinase buffer), Cell Signaling Technology CO.; HRP labeled goat anti mouse IgG, Protein Tech CO.; TMB, Pierce CO.; Streptavidin Microtitration Plate, Greiner Bio-one CO.; Infinite M200 Reader, Tecan CO.
1.2.1 Immediately transfer enzyme from −80° C. to ice. Allow enzyme to thaw on ice then at 4° C. and centrifugate transiently to the bottom of centrifuge tube, then lay back on ice quickly
1.2.2 Add 10 μl of DTT (1.25 M) to 2.5 ml of 4×HTScan tyrosine kinase buffer (240 mM HEPES pH 7.5, 20 mM MgCl2, 20 mM MnCl2, 12 μM Na3VO4). Transfer 0.6 ml of DTT/Kinase buffer to each enzyme tube to make 4× reaction Cocktail. Incubate 12.5 μl of the 4× reaction cocktail with 12.5 μl/well prediluted compound of interest for 5 minutes at room temperature, and set blank control, free-enzyme control, negative control and positive control. 1.2.3 Add 10 μl 10 mM ATP to 1.25 ml 6 μM substrate peptide. Dilute the mixture with dH20 to 2.5 ml to make 2×ATP/substrate cocktail. Add 25 μl of 2×ATP/substrate cocktail to 25 μl/well preincubated reaction cocktail/compound. Incubate reaction plate at room temperature for 30 minutes. 1.2.4 Add 50 μl/well stop Buffer (50 mM EDTA, pH 8) to stop the reaction. Transfer 25 μl of each reaction and 75 μl dH2O/well to a 96-well streptavidin coated plate and incubate at room temperature for 60 minutes. Wash three times with 200 μl/well PBS/T(1×PBS, 0.05% Tween-20). 1.2.5 Dilute primary antibody, Phospho-Tyrosine mAb (P-Tyr-100), 1:500 in PBS/T with 1% BSA. Add 100 μl/well primary antibody. Incubate at room temperature for 60 minutes. Wash three times with 200 μl/well PBS/T(1×PBS, 0.05% Tween-20). 1.2.6 Prepare appropriate dilution of HRP labeled secondary antibody, 1:500 in PBS/T with 1% BSA. Add 100 μl/well secondary antibody solution. Incubate at room temperature for 30 minutes. Wash five times with 200 μl/well PBS/T 1.2.7 Add 100 μl/well TMB substrate and incubate at room temperature for 1-10 minutes. Add 50 μl 2M H2SO4 to stop the color reaction. Read the absorbance of A450-A630 with the Infinite M200 microtiter plate reader. 1.2.8 Calculate the inhibition ratio with the following formula: […]

T1 sequence (P35968 20-1356): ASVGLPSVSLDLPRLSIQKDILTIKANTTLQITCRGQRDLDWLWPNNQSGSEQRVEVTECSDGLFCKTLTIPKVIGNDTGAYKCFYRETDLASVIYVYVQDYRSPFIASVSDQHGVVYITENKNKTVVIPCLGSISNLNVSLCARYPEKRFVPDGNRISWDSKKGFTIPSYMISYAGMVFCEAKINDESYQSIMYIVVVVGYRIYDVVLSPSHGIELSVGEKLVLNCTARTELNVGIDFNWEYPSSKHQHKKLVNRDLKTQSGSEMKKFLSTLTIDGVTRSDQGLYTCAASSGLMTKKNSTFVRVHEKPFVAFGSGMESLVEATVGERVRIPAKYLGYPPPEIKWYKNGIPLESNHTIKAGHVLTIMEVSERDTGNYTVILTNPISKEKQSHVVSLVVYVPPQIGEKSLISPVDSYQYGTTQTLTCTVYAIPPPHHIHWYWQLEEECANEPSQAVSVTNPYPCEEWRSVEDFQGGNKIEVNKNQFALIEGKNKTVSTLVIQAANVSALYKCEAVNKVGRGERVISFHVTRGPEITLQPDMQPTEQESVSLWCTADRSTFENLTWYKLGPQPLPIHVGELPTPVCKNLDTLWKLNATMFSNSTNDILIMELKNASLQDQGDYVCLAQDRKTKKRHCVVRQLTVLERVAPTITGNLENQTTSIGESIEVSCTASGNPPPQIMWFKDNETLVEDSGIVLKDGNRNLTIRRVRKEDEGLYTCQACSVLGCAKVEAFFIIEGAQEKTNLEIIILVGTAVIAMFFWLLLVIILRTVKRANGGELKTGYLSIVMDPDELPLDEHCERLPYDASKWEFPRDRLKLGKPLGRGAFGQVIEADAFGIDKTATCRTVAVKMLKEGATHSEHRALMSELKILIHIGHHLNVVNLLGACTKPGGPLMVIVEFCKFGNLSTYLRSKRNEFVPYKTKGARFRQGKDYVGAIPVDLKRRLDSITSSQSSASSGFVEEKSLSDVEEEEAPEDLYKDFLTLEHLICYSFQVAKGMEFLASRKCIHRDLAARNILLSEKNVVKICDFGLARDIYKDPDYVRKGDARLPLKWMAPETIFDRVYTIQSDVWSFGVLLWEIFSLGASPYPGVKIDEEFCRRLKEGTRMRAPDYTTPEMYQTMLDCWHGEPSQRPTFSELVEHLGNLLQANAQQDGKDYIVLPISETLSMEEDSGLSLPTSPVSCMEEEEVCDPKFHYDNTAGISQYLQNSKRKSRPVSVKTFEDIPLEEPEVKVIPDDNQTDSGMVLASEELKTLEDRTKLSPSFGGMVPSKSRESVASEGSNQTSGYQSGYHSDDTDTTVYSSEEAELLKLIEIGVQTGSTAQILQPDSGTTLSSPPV

| Structure (SMILES) | IC50 [1] [nM] | IC50 [2] [nM] | IC50 [3] [nM] | IC50 [4] [nM] | IC50 [5] [nM] | IC50 (VEGFR-2) [nM] | inhibition at 10 µM [1] [%] | inhibition at 10 µM [2] [%] | inhibition at 10 µM [3] [%] | inhibition at 10 µM [4] [%] | inhibition at 10 µM [5] [%] |
| --- | --- | --- | --- | --- | --- | --- | --- | --- | --- | --- | --- |
| Cc1[nH]c2c(c1C(=O)NCCN1CCOCC1)CCC/C2=C1/C(=O)Nc2ccc(Cl)cc21 [I-19, N-(2-morpholinoethyl)-2-methyl-7-[1,2-dihydro-5-chloro-2-oxo-3H-indol-(Z)-3-ylidene]-4,5,6,7-tetrahydro-1H-indole-3-carboxamide] |  |  |  |  |  | 31 |  |  |  |  |  |
| CCN(CC)CCNC(=O)c1c(C)[nH]c2c1CCC/C2=C1/C(=O)Nc2c(F)cccc21 [I-40, N-(2-(diethylamino)ethyl)-2-methyl-7-[1,2-dihydro-7-fluoro-2-oxo-3H-indol-(Z)-3-ylidene]-4,5,6,7-tetrahydro-1H-indole-3-carboxamide] |  |  |  |  |  | 82 |  |  |  |  |  |

Second part, led by results:

| IC50 [1] [nM] | IC50 [2] [nM] | IC50 [3] [nM] | IC50 [4] [nM] | IC50 [5] [nM] | IC50 (VEGFR-2) [nM] | Structure (SMILES) | inhibition at 10 µM [1] [%] | inhibition at 10 µM [2] [%] | inhibition at 10 µM [3] [%] | inhibition at 10 µM [4] [%] | inhibition at 10 µM [5] [%] |
| --- | --- | --- | --- | --- | --- | --- | --- | --- | --- | --- | --- |
| 2050 | 1300 | 2240 | 2210 | 1290 |  | CCN(CC)CC(O)CNC(=O)c1c(C)[nH]c2c1CCC/C2=C1/C(=O)Nc2ccc(F)cc21 (centres unmarked) [I-64, N-(3-(diethylamino)-2-hydroxypropyl)-2-methyl-7-[1,2-dihydro-5-fluoro-2-oxo-3H-indol-(Z)-3-ylidene]-4,5,6,7-tetrahydro-1H-indole-3-carboxamide] | 98.1 | 96.6 | 93.5 | 84.7 | 98.5 |
|  |  |  |  |  | 6.8 | CCN(CC)CCNC(=O)c1c(C)[nH]c2c1CCC/C2=C1/C(=O)Nc2ccc(C(=O)O)cc21 [I-44, N-(2-(diethylamino)ethyl)-2-methyl-7-[1,2-dihydro-5-carboxyl-2-oxo-3H-indol-(Z)-3-ylidene]-4,5,6,7-tetrahydro-1H-indole-3-carboxamide] |  |  |  |  |  |
| 3030 | 2890 | 3170 | 4660 | 3190 |  | Cc1[nH]c2c(c1C(=O)NCC(O)CN(C)C)CCC/C2=C1/C(=O)Nc2ccc(F)cc21 (centres unmarked) [I-66, N-(3-(dimethylamino)-2-hydroxypropyl)-2-methyl-7-[1,2-dihydro-5-fluoro-2-oxo-3H-indol-(Z)-3-ylidene]-4,5,6,7-tetrahydro-1H-indole-3-carboxamide] | 88.7 | 93 | 85.1 | 76.8 | 97.9 |
